# Results as given in patent US20170290774A1, “NEUROKININ-1 RECEPTOR ANTAGONIST COMPOSITION FOR TREATMENT OF DISEASES AND CONDITIONS OF THE RESPIRATORY TRACT” (PLUS VITECH, S.L., priority 2014, published 2017).
# What was measured:
# [1] = system: MMP-11; assay: Immunohistochemistry of MMP-11 in respiratory tract tissue of sodium hypochlorite aerosol-treated rabbits; assay type: in vivo, New Zealand albino rabbits
# Text: (§1) It is known that the factors TGF-α, TGF-β 1, TGF-β 2, TGF-β 3, SPARC, MMP-3; MMP-7, MMP-9, MMP-11, MMP-13 and MMP-14, TGF-β, NF-kB, EGF, MMP-9, VEGF and TNF-α which are produced by lung cells (pneumocytes, fibroblasts and vascular endothelial cells) and inflammatory cells (macrophages, lymphocytes and polymorphonuclear leukocytes) are involved in the pathophysiology and development of said respiratory tract diseases. […] Herein, 27 New Zealand albino rabbits (New Zealand White Rabbit) with an initial average weight about 3 kg were used in this example. All subjects were administered an aerosol of a solution consisting of a mixture of water and sodium hypochlorite (35 g sodium hypochlorite per liter of water) at a rate of 5 mL of said solution by inhalation three times a day for 7 days (days 1 to 7 of experimentation). Subsequently, from days 3 to 7, a group of 3 rabbits (Group 1) was administered an oral dose of 10 mg/kg body weight per day, another group of 3 rabbits (Group 2) was administered an oral dose of 40 mg/kg body weight per day, a third group (Group 3) was administered an oral dose of 80 mg/kg body weight per day and a fourth group (Group 4) was administered an oral dose of 100 mg/kg body weight per day. […] This mixture was administered as an aerosol by inhalation, also from days 3 to 7, to a group of 3 rabbits (group 5) at a dose of 0.05 mg/kg body weight per day, to another group of three rabbits (Group 6) at a dose of 0.1 mg/kg body weight per day, to another group of three rabbits (Group 7) at a dose of 0.2 mg/kg body weight per day and to another group of three rabbits (Group 8) at a dose of 0.4 mg/kg body weight per day. A placebo consisting only of olive oil was administered from days 3 to 7 to a control group of 3 rabbits (placebo group). In parallel, 3 rabbits were kept under identical conditions but were not administered any treatment nor the aforementioned sodium hypochlorite solution (control group). […] On day 7 of the experiment all animals were euthanized and necropsied. […] Samples were taken at the peripheral level of the lung parenchyma, just below the pleural surface. Tissue samples were also taken from the nasal cavity, pharynx, larynx and bronchi. Immunohistochemistry studies were performed for all samples to evaluate the levels of the markers TGF-α, TGF-β 1, TGF-β 2, TGF-β 3 SPARC, MMP-3; MMP-7, MMP-9, MMP-11, MMP-14, TGF-β, TNF-α and VEGF. In said immunohistochemistry studies, a sample of each sample was dehydrated by treatment with increasing concentrations of ethanol and finally xylene. Subsequently said dried samples were embedded in paraffin, thus creating a block. Said paraffin blocks were cut on a microtome to a thickness of 5 μm, and the resulting sections (slices) were placed on slides suitable for conducting immunohistochemistry techniques. Subsequently, the sections were deparaffinised by immersion in xylene and then rehydrated through immersion in a series of solutions containing decreasing concentrations of ethanol and, finally, water. […] The samples were then allowed to cool to room temperature over 10 minutes. Endogenous peroxidase activity was blocked by treatment with 3% hydrogen peroxide over 30 min at room temperature. […] In order to verify the expression of NK1 receptors, the cell samples were incubated in the presence of anti-NK1 antibodies ([…], Sigma-Aldrich) diluted 1:1000 at 4° C. overnight. After this time they were washed in 0.05M Tris buffer at room temperature. Subsequently, Envision System-HRP (Dako) reagents were added for 30 min at room temperature. Once this time had expired, the samples were again washed with 0.05 M Tris buffer, and immunoreactivity was visualized by light microscopy with a chromogenic solution with 3,3'-diaminobenzidine (DAB+; Dako, USA). In order to differentiate the cell nuclei, these were lightly stained with haematoxylin. Samples that were not incubated with the primary antibody, but wherein this was replaced by a non-immune serum were used as negative controls. […]
# [2] = system: VEGF; assay: Immunohistochemistry of VEGF in respiratory tract tissue of sodium hypochlorite aerosol-treated rabbits; assay type: in vivo, New Zealand albino rabbits
# Text: as §1
# [3] = bronchial tissue, Group 1, oral 10 mg/kg per day
# [4] = bronchial tissue, Group 2, oral 40 mg/kg per day
# [5] = bronchial tissue, Group 3, oral 80 mg/kg per day
# [6] = bronchial tissue, Group 4, oral 100 mg/kg per day
# [7] = laryngeal tissue, Group 1, oral 10 mg/kg per day
# [8] = laryngeal tissue, Group 2, oral 40 mg/kg per day
# [9] = laryngeal tissue, Group 3, oral 80 mg/kg per day
# [10] = laryngeal tissue, Group 4, oral 100 mg/kg per day
# [11] = laryngeal tissue, Group 5, inhalation 0.05 mg/kg per day
# [12] = laryngeal tissue, Group 6, inhalation 0.1 mg/kg per day
# [13] = laryngeal tissue, Group 7, inhalation 0.2 mg/kg per day
# [14] = laryngeal tissue, Group 8, inhalation 0.4 mg/kg per day
# [15] = lung tissue, Group 1, oral 10 mg/kg per day
# [16] = lung tissue, Group 2, oral 40 mg/kg per day
# [17] = lung tissue, Group 3, oral 80 mg/kg per day
# [18] = lung tissue, Group 4, oral 100 mg/kg per day
# [19] = lung tissue, Group 5, inhalation 0.05 mg/kg per day
# [20] = lung tissue, Group 6, inhalation 0.1 mg/kg per day
# [21] = lung tissue, Group 7, inhalation 0.2 mg/kg per day
# [22] = lung tissue, Group 8, inhalation 0.4 mg/kg per day
# [23] = nasal cavity tissue, Group 1, oral 10 mg/kg per day
# [24] = nasal cavity tissue, Group 2, oral 40 mg/kg per day
# [25] = nasal cavity tissue, Group 3, oral 80 mg/kg per day
# [26] = nasal cavity tissue, Group 4, oral 100 mg/kg per day
# [27] = nasal cavity tissue, Group 5, inhalation 0.05 mg/kg per day
# [28] = nasal cavity tissue, Group 6, inhalation 0.1 mg/kg per day
# [29] = nasal cavity tissue, Group 7, inhalation 0.2 mg/kg per day
# [30] = nasal cavity tissue, Group 8, inhalation 0.4 mg/kg per day
# [31] = pharyngeal tissue, Group 1, oral 10 mg/kg per day
# [32] = pharyngeal tissue, Group 2, oral 40 mg/kg per day
# [33] = pharyngeal tissue, Group 3, oral 80 mg/kg per day
# [34] = pharyngeal tissue, Group 4, oral 100 mg/kg per day
# [35] = pharyngeal tissue, Group 5, inhalation 0.05 mg/kg per day
# [36] = pharyngeal tissue, Group 6, inhalation 0.1 mg/kg per day
# [37] = pharyngeal tissue, Group 7, inhalation 0.2 mg/kg per day
# [38] = pharyngeal tissue, Group 8, inhalation 0.4 mg/kg per day
smiles,measurement,setting,value
"C[C@@H](OC1OCCN(Cc2nc(=O)[nH][nH]2)C1c1ccc(F)cc1)c1cc(C(F)(F)F)cc(C(F)(F)F)c1 (stereo in doubt) [Aprepitant, 5-([(2R,3S)-2-((R)-1-[3,5-bis(trifluoromethyl)phenyl]ethoxy)-3-(4-fluorophenyl)morpholino]methyl)-1H-1,2,4-triazol-3(2H)-one]",Percent increase in MMP-11 with respect to the control group,[1]; [3],784.45%
same,Percent increase in MMP-11 with respect to the control group,[1]; [4],673.45%
same,Percent increase in MMP-11 with respect to the control group,[1]; [5],563.45%
same,Percent increase in MMP-11 with respect to the control group,[1]; [6],453.34%
same,% Med G5/C: percent increase in marker MMP-11 with respect to the control group,"[1]; bronchial tissue, Group 5",653.23%
same,% Med G6/C: percent increase in marker MMP-11 with respect to the control group,"[1]; bronchial tissue, Group 6",438.43%
same,% Med G7/C: percent increase in marker MMP-11 with respect to the control group,"[1]; bronchial tissue, Group 7",342.56%
same,% Med G8/C: percent increase in marker MMP-11 with respect to the control group,"[1]; bronchial tissue, Group 8",159.42%
same,Percent increase in MMP-11 with respect to the control group,[1]; [7],789.61%
same,Percent increase in MMP-11 with respect to the control group,[1]; [8],576.17%
same,Percent increase in MMP-11 with respect to the control group,[1]; [9],456.89%
same,Percent increase in MMP-11 with respect to the control group,[1]; [10],324.89%
same,Percent increase in MMP-11 with respect to the control group,[1]; [11],768.34%
same,Percent increase in MMP-11 with respect to the control group,[1]; [12],504.34%
same,Percent increase in MMP-11 with respect to the control group,[1]; [13],203.23%
same,Percent increase in MMP-11 with respect to the control group,[1]; [14],167.36%
same,Percent increase in MMP-11 with respect to the control group,[1]; [15],522.19%
same,Percent increase in MMP-11 with respect to the control group,[1]; [16],416.18%
same,Percent increase in MMP-11 with respect to the control group,[1]; [17],339.86%
same,Percent increase in MMP-11 with respect to the control group,[1]; [18],251.62%
same,Percent increase in MMP-11 with respect to the control group,[1]; [19],520.05%
same,Percent increase in MMP-11 with respect to the control group,[1]; [20],222.75%
same,Percent increase in MMP-11 with respect to the control group,[1]; [21],169.57%
same,Percent increase in MMP-11 with respect to the control group,[1]; [22],128.28%
same,Percent increase in MMP-11 with respect to the control group,[1]; [23],"1,023.73%"
same,Percent increase in MMP-11 with respect to the control group,[1]; [24],609.60%
same,Percent increase in MMP-11 with respect to the control group,[1]; [25],392.70%
same,Percent increase in MMP-11 with respect to the control group,[1]; [26],270.95%
same,Percent increase in MMP-11 with respect to the control group,[1]; [27],"1,215.12%"
same,Percent increase in MMP-11 with respect to the control group,[1]; [28],489.76%
same,Percent increase in MMP-11 with respect to the control group,[1]; [29],266.47%
same,Percent increase in MMP-11 with respect to the control group,[1]; [30],133.33%
same,Percent increase in MMP-11 with respect to the control group,[1]; [31],"1,387.65%"
same,Percent increase in MMP-11 with respect to the control group,[1]; [32],"1,980.45%"
same,Percent increase in MMP-11 with respect to the control group,[1]; [33],980.34%
same,Percent increase in MMP-11 with respect to the control group,[1]; [34],670.45%
same,Percent increase in MMP-11 with respect to the control group,[1]; [35],"1,324.23%"
same,Percent increase in MMP-11 with respect to the control group,[1]; [36],904.21%
same,Percent increase in MMP-11 with respect to the control group,[1]; [37],529.34%
same,Percent increase in MMP-11 with respect to the control group,[1]; [38],109.43%
same,Percent increase in VEGF with respect to the control group,[2]; [3],457.34%
same,Percent increase in VEGF with respect to the control group,[2]; [4],356.45%
same,Percent increase in VEGF with respect to the control group,[2]; [5],256.34%
same,Percent increase in VEGF with respect to the control group,[2]; [6],203.56%
same,% Med G5/C: percent increase in marker VEGF with respect to the control group,"[2]; bronchial tissue, Group 5",324.53%
same,% Med G6/C: percent increase in marker VEGF with respect to the control group,"[2]; bronchial tissue, Group 6",235.71%
same,% Med G7/C: percent increase in marker VEGF with respect to the control group,"[2]; bronchial tissue, Group 7",153.57%
same,% Med G8/C: percent increase in marker VEGF with respect to the control group,"[2]; bronchial tissue, Group 8",112.71%
same,Percent increase in VEGF with respect to the control group,[2]; [7],"1,134.34%"
same,Percent increase in VEGF with respect to the control group,[2]; [8],980.54%
same,Percent increase in VEGF with respect to the control group,[2]; [9],875.80%
same,Percent increase in VEGF with respect to the control group,[2]; [10],667.82%
same,Percent increase in VEGF with respect to the control group,[2]; [11],950.34%
same,Percent increase in VEGF with respect to the control group,[2]; [12],670.32%
same,Percent increase in VEGF with respect to the control group,[2]; [13],570.12%
same,Percent increase in VEGF with respect to the control group,[2]; [14],250.21%
same,Percent increase in VEGF with respect to the control group,[2]; [15],655.77%
same,Percent increase in VEGF with respect to the control group,[2]; [16],512.28%
same,Percent increase in VEGF with respect to the control group,[2]; [17],458.30%
same,Percent increase in VEGF with respect to the control group,[2]; [18],342.93%
same,Percent increase in VEGF with respect to the control group,[2]; [19],575.62%
same,Percent increase in VEGF with respect to the control group,[2]; [20],391.91%
same,Percent increase in VEGF with respect to the control group,[2]; [21],200.18%
same,Percent increase in VEGF with respect to the control group,[2]; [22],145.64%
same,Percent increase in VEGF with respect to the control group,[2]; [23],"1,293.11%"
same,Percent increase in VEGF with respect to the control group,[2]; [24],969.58%
same,Percent increase in VEGF with respect to the control group,[2]; [25],716.62%
same,Percent increase in VEGF with respect to the control group,[2]; [26],576.80%
same,Percent increase in VEGF with respect to the control group,[2]; [27],"1,727.98%"
same,Percent increase in VEGF with respect to the control group,[2]; [28],"1,010.56%"
same,Percent increase in VEGF with respect to the control group,[2]; [29],323.15%
same,Percent increase in VEGF with respect to the control group,[2]; [30],145.68%
same,Percent increase in VEGF with respect to the control group,[2]; [31],"1,789.12%"
same,Percent increase in VEGF with respect to the control group,[2]; [32],"1,256.67%"
same,Percent increase in VEGF with respect to the control group,[2]; [33],998.56%
same,Percent increase in VEGF with respect to the control group,[2]; [34],567.45%
same,Percent increase in VEGF with respect to the control group,[2]; [35],"1,858.37%"
same,Percent increase in VEGF with respect to the control group,[2]; [36],"1,198.56%"
same,Percent increase in VEGF with respect to the control group,[2]; [37],654.32%
same,Percent increase in VEGF with respect to the control group,[2]; [38],121.34%
